These are literature values, as cited in patent publication US20040019096A1, “Novel formulations of carvedilol” (priority 2003, published 2004).

The conditions of the series: immediate release formulation.

Take `COc1ccccc1OCCNCC(O)COc1cccc2[nH]c3ccccc3c12` (centres unmarked) [carvedilol]: the “absorption following oral administration” value is “rapidly and extensively absorbed”. The terminal elimination half-life (oral administration) is 7 to 10 h.
